# Measurements from patent US6696456B1, “Beta disubstituted metalloprotease inhibitors” (The Procter & Gamble Company, priority 1999, dated 2004).
# What was measured:
# [1] = system: human subject suffering from rheumatoid arthritis; experiment: Example A: oral tablet treatment of a subject with rheumatoid arthritis; format: in vivo; details: tablet with 15 mg compound, three tablets per day orally for 2 years, 60 kg human
# Method: A tablet composition for oral administration, according to the present invention, is made comprising:
# A human subject weighing 60 kg (132 lbs), suffering from rheumatoid arthritis, is treated by a method of this invention. Specifically, for 2 years, a regimen of three tablets per day is administered orally to said subject.
# [2] = system: human subject suffering from osteoarthritis; experiment: Example B: oral capsule treatment of a subject with osteoarthritis; format: in vivo; details: capsule with 70 mg compound daily for 5 years, 90 kg human
# Method: A capsule for oral administration, according to the present invention, is made comprising:
# A human subject weighing 90 kg (198 lbs.), suffering from osteoarthritis, is treated by a method of this invention. Specifically, for 5 years, the above capsule, which contains 70 mg of the compound of Example 4, is administered daily to said subject.
smiles,measurement,setting,value
"COc1ccc(-c2ccc(S(=O)(=O)N[C@@H](C(=O)O)[C@H](OCc3ccc(C)cc3)c3nccs3)cc2)cc1 [Example 1, (2R,3S)-2-(4′ -Methoxy-biphenyl-4-sulfonylamino)-3-(4-methyl-benzyloxy)-3-thiazol-2-yl-propionic Acid]","inflammation, mobility and pain at the end of the treatment period",[1],reduced inflammation and improved mobility without concomitant pain
"CCS[C@H](c1ccccc1)[C@@H](NS(=O)(=O)c1ccc(-c2ccc(F)cc2)cc1)C(=O)O [Example 4, (2S,3R)-3-Ethylsulfanyl-2-(4′-fluoro-biphenyl-4-sulfonylamino)-3-phenyl-propionic Acid]","erosion/fibrillation of the articular cartilage via x-ray, arthroscopy and/or MRI",[2],no further advancement of erosion/fibrillation of the articular cartilage
